Assay results taken from patent US10301295B2, “Herbicidal compounds” (Syngenta Participations AG, priority 2014, dated 2019).
Read-outs that look alike come from different tables or passages of the source.

What was measured:
Format in all cases: in vivo
wheat = test: Post-emergence herbicidal activity against cereal crops (wheat) +/- safener, crop selectivity; details: 100%=total damage to plant, 0%=no damage; for Post-emergence herbicidal activity against wheat (percentage phytotoxicity), +CQC: 250 g/ha, plus safener cloquintocet-mexyl (CQC) applied at 50 g/ha; for percent phytotoxicity (crop damage) to wheat at 250 g/ha: Triticum aestivum, 360 h, without safener, read-out: Post-emergence herbicidal activity against wheat (percentage phytotoxicity), Wheat - CQC
Method: Seeds of a variety of monocotyledonous and dicotyledonous test plants are sown in standard soil in pots. The plants are cultivated for one day (for pre-emergence) or for about 12 days (for post-emergence) under controlled conditions in a glasshouse (warm climate species at 24/18° C., cool climate species at 20/16° C., both at day/night; 16 hours light; 65% humidity). The test plants are then grown on, in a glasshouse (greenhouse) under controlled conditions (warm climate species at 24/18° C., cool climate species at 20/16° C., both at day/night; 16 hours light; 65% humidity) and are watered twice daily. 15 days after application of the test herbicide (15DAA) (for post-emergence), and 20 days after application of the test herbicide (20DAA) (for pre-emergence), the test plants are evaluated visually, and an assessed percentage phytotoxicity score is given for each herbicidal application on each plant species (with 100%=total damage to plant; 0%=no damage to plant).

[1] = test system: Alopecurus myosuroides (ALOMY); test: Glasshouse assay for herbicidal activity, pre-/post-emergence (percentage phytotoxicity); details: Alopecurus myosuroides, Rate 250 g/ha, 100%=total damage, 0%=no damage
Summary of the method: (§1)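 Percentage phytotoxicity was assessed visually, 100% meaning total plant damage and 0% none, at 20 days after application for pre-emergence and 15 days for post-emergence. Plants were potted in standard soil and treated after 1 day or about 12 days of growth.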

Lolium perenne (LOLPE) = test: as above; details: Lolium perenne, Rate 250 g/ha, 100%=total damage, 0%=no damage
Summary of the method: as §1

Avena fatua (AVEFA) = test: as above; details: Avena fatua, Rate 250 g/ha, 100%=total damage, 0%=no damage
Summary of the method: as §1

[2] = test system: Echinochloa crus-galli (ECHCG); test: as above; details: Echinochloa crus-galli, Rate 250 g/ha, 100%=total damage, 0%=no damage
Summary of the method: as §1

[3] = 360 h, post-emergence, visual assessment 15 DAA, read-out: Post-emergence herbicidal activity (percentage phytotoxicity), ALOMY POST
[4] = 480 h, pre-emergence, visual assessment 20 DAA, read-out: Pre-emergence herbicidal activity (percentage phytotoxicity), ALOMY PRE
[5] = post-emergence, 360 h, post-emergence, visual assessment 15 DAA, read-out: Post-emergence herbicidal activity (percentage phytotoxicity), LOLPE POST
[6] = pre-emergence, 480 h, pre-emergence, visual assessment 20 DAA, read-out: Pre-emergence herbicidal activity (percentage phytotoxicity), LOLPE PRE
[7] = post-emergence, 360 h, post-emergence, visual assessment 15 DAA, read-out: Post-emergence herbicidal activity (percentage phytotoxicity), AVEFA POST
[8] = pre-emergence, 480 h, pre-emergence, visual assessment 20 DAA, read-out: Pre-emergence herbicidal activity (percentage phytotoxicity), AVEFA PRE
[9] = post-emergence, 360 h, post-emergence, visual assessment 15 DAA, read-out: Post-emergence herbicidal activity (percentage phytotoxicity), ECHCG POST
[10] = pre-emergence, 480 h, pre-emergence, visual assessment 20 DAA, read-out: Pre-emergence herbicidal activity (percentage phytotoxicity), ECHCG PRE

Structure (SMILES) | Post-emergence herbicidal activity against wheat (percentage phytotoxicity), +CQC (wheat) [%] | percent phytotoxicity (crop damage) to wheat at 250 g/ha (wheat) [%] | pest or weed control at 250 g/ha [1, 3] [%] | pest or weed control at 250 g/ha [1, 4] [%] | pest or weed control at 250 g/ha (Lolium perenne (LOLPE); [5]) [%] | pest or weed control at 250 g/ha (Lolium perenne (LOLPE); [6]) [%] | pest or weed control at 250 g/ha (Avena fatua (AVEFA); [7]) [%] | pest or weed control at 250 g/ha (Avena fatua (AVEFA); [8]) [%] | pest or weed control at 250 g/ha [2, 9] [%] | pest or weed control at 250 g/ha [2, 10] [%]
Cc1cc(-n2cc(Cl)cn2)cc(C)c1C1C(=O)CC(CCNC(=O)Nc2ccccn2)C1=O.Cl (centres unmarked) [Compound A13] | 40 | 70 | 90 | 70 | 70 | 50 | 100 | 40 | 100 | 90
Cc1cc(C)c(C2C(=O)CC(CCNC(=O)NC(=O)c3c(F)cc(Cl)cc3F)C2=O)c(C)c1 (centres unmarked) [Compound A64] | 80 | 90 | 90 | 100 | 100 | 80 | 90 | 80 | 90 | 80
Cc1cc(C)c(C2C(=O)CC(CCNC(=O)NC(=O)c3cccc(C(F)(F)F)c3)C2=O)c(C)c1 (centres unmarked) [Compound A66] | 40 | 80 | 70 | 20 | 80 | 40 | 30 | 0 | 60 | 10
Cc1cc(C)c(C2C(=O)CC(CCNC(=O)N(C)c3ccccc3)C2=O)c(C)c1 (centres unmarked) [Compound A8] | 10 | 70 | 80 | 70 | 90 | 90 | 90 | 90 | 80 | 90
Cc1cc(C)c(C2C(=O)CC(CCNS(=O)(=O)C(C)C)C2=O)c(C)c1 (centres unmarked) [Compound A77] | 10 | 80 | 80 | 100 | 80 | 80 | 80 | 70 | 70 | 70
Cc1cc(-n2cc(Cl)cn2)cc(C)c1C1C(=O)CC(CCNC(=O)Nc2ncccn2)C1=O.Cl (centres unmarked) [Compound A32] | 10 | 60 | 80 | 70 | 60 | 60 | 100 | 50 | 100 | 80
Cc1cc(C)c(C2C(=O)CC(CCNS(=O)(=O)c3ccc(Cl)c(Cl)c3)C2=O)c(C)c1 (centres unmarked) [Compound A78] | 0 | 0 | 40 | 60 | 60 | 70 | 80 | 0 | 30 | 20
Cc1cc(C)c(C2C(=O)CC(CCNS(=O)(=O)c3ccccc3Cl)C2=O)c(C)c1 (centres unmarked) [Compound A80] | 0 | 0 | 10 | 10 | 60 | 60 | 0 | 0 | 0 | 40
Cc1cc(C)c(C2C(=O)CC(CCNC(=O)NC(=O)c3ccccc3C#N)C2=O)c(C)c1 (centres unmarked) [Compound A67] | 0 | 0 |  | 0 |  | 20 |  | 0 |  | 30
Cc1cc(C)c(C2C(=O)CC(CCNS(=O)(=O)c3ccc(Cl)cc3)C2=O)c(C)c1 (centres unmarked) [Compound A81] | 0 | 0 | 60 | 60 | 60 | 70 | 70 | 70 | 60 | 70
Cc1cc(C)c(C2C(=O)CC(CCNC(=O)NCc3ccccc3)C2=O)c(C)c1 (centres unmarked) [Compound A7] | 0 | 20 | 10 | 0 | 70 | 0 | 90 | 0 | 90 | 0
Cc1cc(C)c(C2C(=O)CC(CCNC(=O)Nc3ccc(Br)cn3)C2=O)c(C)c1.Cl (centres unmarked) [Compound A4] | 50 | 90 | 90 | 80 | 100 | 80 | 100 | 70 | 90 | 60
Cc1cc(C)c(C2C(=O)CC(CCNC(=O)Nc3ncccn3)C2=O)c(C)c1 (centres unmarked) [Compound A30] | 40 | 70 | 90 | 80 | 80 | 90 | 80 | 80 | 90 | 60
Cc1cc(C)c(C2C(=O)CC(CCNC(=O)NC(=O)c3ccccn3)C2=O)c(C)c1 (centres unmarked) [Compound A1, N-[2-[2,4-dioxo-3-(2,4,6-trimethylphenyl)cyclopentyl]ethylcarbamoyl]pyridine-2-carboxamide] | 20 | 80 | 90 | 80 | 90 | 100 | 90 | 60 | 80 | 100
CC(=NOCc1ccccc1)C(=O)NCCC1CC(=O)C(c2c(C)cc(-n3cc(Cl)cn3)cc2C)C1=O (centres unmarked) [Compound A41] | 20 | 60 | 60 | 0 | 40 | 0 | 20 | 0 | 60 | 0
